≈ marks a conversion by molar mass, not a printed value.
How the values were obtained:
Staphylococcus aureus [1] = test: Antibacterial activity against Staphylococcus aureus NRS70 measured after 16 to 20 hrs in absence of 2% NaCl by microdilution broth method
Staphylococcus aureus [2] = test: Potentiation of oxacillin induced antibacterial activity against Staphylococcus aureus NRS70 assessed as oxacillin MIC at 20 uM measured after 16 to 20 hrs in presence of 2% NaCl by microdilution broth method (reference value: 64 mg/L); type: functional

| MIC (Staphylococcus aureus [1]) [µg/mL] | MIC (Staphylococcus aureus [2]) [µg/mL] | Compound |
| --- | --- | --- |
| ≥ 64 | 64 | N#CC(C#N)=Cc1cccc(Sc2ccc(Cl)c(Cl)c2)c1 |
| ≥ 64 | 1 | N#C/C(=C\c1cc(Cc2ccc(Cl)c(Cl)c2)ccc1F)C(=O)C1CC1 |
| 32 (≈ 102 µM) | 64 | N#CC(C#N)=Cc1cccc(Oc2ccc(Cl)c(Cl)c2)c1 |
| ≥ 64 | 64 | N#CC(C#N)=Cc1cccc(Cc2cccc(Cl)c2)c1 |
| 32 (≈ 80.7 µM) | 8 | COc1c(/C=C(\C#N)S(C)(=O)=O)cccc1Cc1ccc(Cl)c(Cl)c1 |
| ≥ 64 | 64 | CS(=O)(=O)/C(C#N)=C/c1cc(Cc2ccc(F)c(F)c2)ccc1F |
| ≥ 64 | 64 | CC(=C(C#N)C#N)c1cccc(Cc2ccc(Cl)c(Cl)c2)c1 |
| ≥ 64 | 64 | N#CC(C#N)=Cc1cccc(Cc2cc(F)c(F)cc2F)c1 |
| ≥ 64 | 64 | N#C/C(=C\c1cccc(Oc2ccc(Cl)c(Cl)c2)c1)c1nc2ccccc2s1 |
| 32 (≈ 90.6 µM) | 16 | CS(=O)(=O)/C(C#N)=C/c1cccc(-c2ccc(Cl)c(Cl)c2)n1 |
| ≥ 64 | 64 | N#C/C(=C\c1cccc(Oc2ccc(Cl)c(Cl)c2)c1)C(=O)O |
| ≥ 64 | 64 | N#C/C(=C\c1cccc(Oc2ccc(Cl)c(Cl)c2)c1)c1cccs1 |
| ≥ 64 | 64 | COc1ccc(Cc2ccc(OC(F)(F)F)c(/C=C(\C#N)S(C)(=O)=O)c2)cc1OC |
| ≥ 64 | 64 | CS(=O)(=O)/C(C#N)=C/c1cc(-c2cnc3ccccc3n2)ccc1F |
| ≥ 64 | 64 | N#CC(C#N)=Cc1cccc(Oc2ncc(Cl)c(Cl)n2)c1 |
| ≥ 64 | 64 | N#CC(C#N)=Cc1cccc(Oc2ccc(Cl)nn2)c1 |
| 8 (≈ 24 µM) | 64 | N#C/C(=C\c1cccc(Oc2ccc(Cl)c(Cl)c2)c1)C(N)=O |
| ≥ 64 | 16 | N#CC(C#N)=Cc1cccc(C(=O)Nc2ccc(Cl)c(Cl)c2)c1 |
| ≥ 64 | 64 | Cc1ccc(C(=O)/C(C#N)=C/c2cccc(Oc3ccc(Cl)c(Cl)c3)c2)cc1 |
| ≥ 64 | 64 | N#C/C(=C\c1cccc(Oc2ccc(Cl)c(Cl)c2)c1)c1ccncc1 |
| ≥ 64 | 64 | COc1ccc(C=C(C#N)C#N)cc1Oc1ccc(Cl)c(Cl)c1 |
| 32 (≈ 75.2 µM) | 64 | CS(=O)(=O)/C(C#N)=C/c1cc(Cc2ccc3c(c2)OCO3)ccc1OC(F)(F)F |
| ≥ 64 | 64 | Cc1ccc(Oc2cccc(C=C(C#N)C#N)c2)cc1 |
| 16 (≈ 44 µM) | 64 | N#CC(C#N)=Cc1cccc(S(=O)(=O)c2ccc(Cl)c(Cl)c2)c1 |
| 32 (≈ 114 µM) | 64 | N#CC(C#N)=Cc1ccc(Oc2ccc(Cl)cc2)cc1 |
| 32 (≈ 73.9 µM) | 16 | N#C/C(=C\c1cc(-c2ccc(Cl)c(Cl)c2)ccc1F)S(=O)(=O)c1ccccn1 |
| ≥ 64 | 64 | N#C/C(=C\c1cccc(Oc2ccc(Cl)c(Cl)c2)c1)c1ccccn1 |
| ≥ 64 | 64 | N#CC(C#N)=Cc1cccc(Cc2ccc(Cl)c(Cl)c2)c1 |

The remaining lines, values behind:

| Compound | MIC (Staphylococcus aureus [1]) [µg/mL] | MIC (Staphylococcus aureus [2]) [µg/mL] |
| --- | --- | --- |
| COc1ccc(OC)c(Cc2cccc(C=C(C#N)C#N)c2)c1 | ≥ 64 | 64 |
| COc1ccc(Cc2ccc(F)c(/C=C(\C#N)S(C)(=O)=O)c2)cc1C(F)(F)F | ≥ 64 | 64 |
| N#CC(C#N)=Cc1cccc(Oc2ccccc2)c1 | 32 (≈ 130 µM) | 64 |
| CS(=O)(=O)/C(C#N)=C/c1cccc(Oc2ccc(Cl)c(Cl)c2)c1 | 16 (≈ 43.4 µM) | 64 |
| COc1ccc(Oc2cccc(C=C(C#N)C#N)c2)cc1 | ≥ 64 | 64 |
| CCOc1ccc(Cc2ccc(Cl)c(Cl)c2)cc1/C=C(\C#N)S(C)(=O)=O | ≥ 64 | 16 |
| N#CC(C#N)=Cc1cccc(Oc2ccc(Cl)cc2)c1 | 32 (≈ 114 µM) | 64 |
| CS(=O)(=O)/C(C#N)=C/c1cc(-c2ccc3ccccc3n2)ccc1F | ≥ 64 | 64 |
| CS(=O)(=O)/C(C#N)=C/c1cc(Cc2ccc(C(F)(F)F)c(F)c2)ccc1F | 32 (≈ 79.7 µM) | 64 |
| Cc1ccc(S(=O)(=O)Nc2cccc(C=C(C#N)C#N)c2)cc1 | ≥ 64 | 64 |
| N#CC(C#N)=Cc1cccc(Oc2ccc(F)cc2)c1 | ≥ 64 | 64 |
| CS(=O)(=O)/C(C#N)=C/c1cc(-c2ccnc3ccccc23)ccc1F | ≥ 64 | 64 |
| COc1ccc(Cc2ccc(Cl)c(Cl)c2)cc1/C=C(\C#N)S(C)(=O)=O | 32 (≈ 80.7 µM) | 4 |
| COc1ccc(Cc2ccc(Cl)c(Cl)c2)cc1C=C(C#N)C#N | ≥ 64 | 4 |
| N#CC(C#N)=Cc1cc(Cc2ccc(Cl)c(Cl)c2)ccc1F | 8 (≈ 24.2 µM) | 4 |
| N#CC(C#N)=Cc1cccc(Cc2ccc(F)c(Cl)c2)c1 | ≥ 64 | 64 |

| Compound | MIC (Staphylococcus aureus [1]) [µg/mL] | MIC (Staphylococcus aureus [2]) [µg/mL] |
| --- | --- | --- |
| N#CC(C#N)=Cc1cccc(Cc2ccc(Cl)c(Cl)c2)c1F | 8 (≈ 24.2 µM) | 2 |
| N#CC(C#N)Cc1cccc(Oc2ccc(Cl)c(Cl)c2)c1 | 32 (≈ 101 µM) | 64 |
| CC(C)NC(=O)c1ccc(Cc2ccc(F)c(/C=C(\C#N)S(C)(=O)=O)c2)cc1 | ≥ 64 | 64 |
| CS(=O)(=O)/C(C#N)=C/c1cc(Cc2ccc(SC(F)(F)F)cc2)ccc1F | ≥ 64 | 64 |
| CS(=O)(=O)/C(C#N)=C/c1cccc(Cc2ccc(Cl)c(Cl)c2)c1F | 8 (≈ 20.8 µM) | 2 |
| CS(=O)(=O)/C(C#N)=C/c1cc(Cc2cccc(C(F)(F)F)c2)ccc1F | ≥ 64 | 64 |
| N#CC(C#N)=Cc1cccc(Cc2ccc(Cl)c(F)c2)c1 | ≥ 64 | 64 |
| COc1ccc(Cc2ccc(Cl)c(Cl)c2)c(OC)c1/C=C(\C#N)S(C)(=O)=O | 16 (≈ 37.5 µM) | 64 |
| CS(=O)(=O)/C(C#N)=C/c1cc(Cc2ccc(C(F)(F)F)cc2)ccc1F | 32 (≈ 83.5 µM) | 64 |
| CS(=O)(=O)/C(C#N)=C/c1cc(Cc2cccc(OC(F)(F)F)c2)ccc1F | ≥ 64 | 64 |
| N#CC(C#N)=Cc1cccc(Oc2cc(Cl)cc(Cl)c2)c1 | 16 (≈ 50.8 µM) | 64 |
| CS(=O)(=O)/C(C#N)=C/c1cc(Cc2ccc(F)c(C(F)(F)F)c2)ccc1F | ≥ 64 | 64 |
| CS(=O)(=O)/C(C#N)=C/c1cc(Cc2ccc(OC(F)(F)F)cc2)ccc1F | ≥ 64 | 64 |
| CS(=O)(=O)/C(C#N)=C/c1cc(Cc2ccc(Cl)c(Cl)c2)ccc1N1CCOCC1 | ≥ 64 | 16 |
| N#CC(C#N)=Cc1cccc(Oc2cccc(C(F)(F)F)c2)c1 | 32 (≈ 102 µM) | 64 |

Source: ChEMBL document CHEMBL4304792, “Cinnamonitrile Adjuvants Restore Susceptibility to β-Lactams against Methicillin-Resistant Staphylococcus aureus” (ACS Med Chem Lett, 2019)
